Experimental findings from PMC9381564 (Plant and Cell Physiology, 2022) are described below.

The target of the experiment is T1, SoGDH (spinach L-galactose dehydrogenase) (Spinacia oleracea, UniProt Q6BDJ2).
T1 sequence (Q6BDJ2 1-322): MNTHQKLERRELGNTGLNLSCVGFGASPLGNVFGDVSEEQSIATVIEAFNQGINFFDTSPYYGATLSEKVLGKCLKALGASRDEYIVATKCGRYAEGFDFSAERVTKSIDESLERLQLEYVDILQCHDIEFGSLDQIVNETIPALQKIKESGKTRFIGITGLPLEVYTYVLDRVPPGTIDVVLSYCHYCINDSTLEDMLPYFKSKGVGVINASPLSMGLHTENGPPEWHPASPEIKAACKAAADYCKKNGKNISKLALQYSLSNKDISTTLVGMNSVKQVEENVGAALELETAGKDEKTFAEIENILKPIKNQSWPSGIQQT
As to the kind of experiment: X-ray crystal structure, co-crystallisation, […] A. The format is binding. As to conditions: 5 mM NAD+, 1 mM L-galactose in drop, Bis-Tris pH 5.5.

On to `NC(=O)c1ccc[n+]([C@@H]2O[C@H](COP(=O)(O)OP(=O)(O)OC[C@H]3O[C@@H](n4cnc5c(N)ncnc54)[C@H](O)[C@@H]3O)[C@@H](O)[C@H]2O)c1` [NAD^+], for which the “X-ray crystal structure, co-crystallisation, 1.75 A” value is recorded as “crystals of SoGDH complexed with the cofactor NAD^+ were obtained using co-crystallization”.
